{
  "source": "ChEMBL document CHEMBL1275440",
  "about": "“In vitro activity of telavancin against resistant gram-positive bacteria” (2008)",
  "format_in_all_cases": "functional",
  "key": {"[1]": {"system": "Staphylococcus epidermidis", "test": "Antibacterial activity against methicillin resistant Staphylococcus epidermidis ATCC 35984 assessed as bacterial count at 16 ug/ml after 24 hrs by time-kill assay"}, "[2]": {"system": "Streptococcus pneumoniae", "test": "Antibacterial activity against multidrug resistant Streptococcus pneumoniae MED 1090 assessed as bacterial count at 0.06 ug/ml after 2 hrs by time-kill assay"}, "[3]": {"system": "Staphylococcus aureus", "test": "Antibacterial activity against methicillin resistant Staphylococcus aureus MED 2028 osteomyelitis isolate assessed as bacterial count at 4 ug/ml after 2 hrs by time-kill assay"}, "[4]": {"system": "Enterococcus faecalis", "test": "Antibacterial activity against Enterococcus faecalis ATCC 51575 assessed as bacterial count at 4 ug/ml after 8 hrs by time-kill assay"}, "[5]": {"system": "Streptococcus mitis", "test": "Antibacterial activity against Streptococcus mitis clinical isolate by broth microdilution method"}, "[6]": {"system": "Staphylococcus epidermidis", "test": "Antibacterial activity against methicillin resistant Staphylococcus epidermidis ATCC 35984 assessed as bacterial count at 4 ug/ml after 8 hrs by time-kill assay"}, "[7]": {"system": "Enterococcus faecalis", "test": "Antibacterial activity against Enterococcus faecalis ATCC 51575 assessed as bacterial count at 8 ug/ml after 2 hrs by time-kill assay"}, "[8]": {"system": "Streptococcus pneumoniae", "test": "Antibacterial activity against multidrug resistant Streptococcus pneumoniae MED 1090 assessed as bacterial count at 2 ug/ml after 4 hrs by time-kill assay"}, "[9]": {"system": "Staphylococcus aureus", "test": "Antibacterial activity against methicillin resistant Staphylococcus aureus MED 2028 osteomyelitis isolate assessed as bacterial count at 8 ug/ml after 24 hrs by time-kill assay"}, "[10]": {"system": "Staphylococcus aureus", "test": "Antibacterial activity against methicillin resistant Staphylococcus aureus MED 2028 osteomyelitis isolate assessed as bacterial count at 1 ug/ml after 4 hrs by time-kill assay"}, "[11]": {"system": "Streptococcus pyogenes", "test": "Antibacterial activity against Streptococcus pyogenes MED 2040 assessed as bacterial count at […] after 24 hrs by time-kill assay"}, "[12]": {"system": "Staphylococcus aureus", "test": "Antibacterial activity against methicillin resistant Staphylococcus aureus MED 2028 osteomyelitis isolate assessed as bacterial count at 1 ug/ml after 2 hrs by time-kill assay"}, "[13]": {"system": "Enterococcus faecium", "test": "Antibacterial activity against vancomycin resistant Enterococcus faecium VanA clinical isolate by broth microdilution method"}, "[14]": {"system": "Staphylococcus aureus", "test": "Antibacterial activity against methicillin resistant Staphylococcus aureus MED 2028 osteomyelitis isolate assessed as bacterial count at 1 ug/ml after 24 hrs by time-kill assay"}, "[15]": {"system": "Streptococcus agalactiae", "test": "Antibacterial activity against Streptococcus agalactiae MED 2038 assessed as bacterial count at […] after 2 hrs by time-kill assay"}, "[16]": {"system": "Streptococcus pyogenes", "test": "Antibacterial activity against Streptococcus pyogenes MED 2040 assessed as bacterial count at […] after 8 hrs by time-kill assay"}, "[17]": {"system": "Staphylococcus epidermidis", "test": "Antibacterial activity against methicillin resistant Staphylococcus epidermidis ATCC 35984 assessed as bacterial count at 4 ug/ml after 24 hrs by time-kill assay"}, "[18]": {"system": "Enterococcus faecalis", "test": "Antibacterial activity against Enterococcus faecalis ATCC 51575 assessed as bacterial count at 4 ug/ml after 2 hrs by time-kill assay"}, "[19]": {"system": "Streptococcus pneumoniae", "test": "Antibacterial activity against penicillin resistant Streptococcus pneumoniae clinical isolate by broth microdilution method"}, "[20]": {"system": "Streptococcus pyogenes", "test": "Antibacterial activity against Streptococcus pyogenes MED 2040 assessed as bacterial count at 2 ug/ml after 24 hrs by time-kill assay"}, "[21]": {"system": "Streptococcus agalactiae", "test": "Antibacterial activity against Streptococcus agalactiae MED 2038 assessed as bacterial count at […] after 24 hrs by time-kill assay"}, "[22]": {"system": "Staphylococcus aureus", "test": "Antibacterial activity against methicillin resistant Staphylococcus aureus MED 1805 bloodstream isolate assessed as bacterial count at 16 ug/ml after 24 hrs by time-kill assay"}, "[23]": {"system": "Streptococcus pyogenes", "test": "Antibacterial activity against Streptococcus pyogenes MED 2040 assessed as bacterial count at 0.5 ug/ml after 24 hrs by time-kill assay"}, "[24]": {"system": "Staphylococcus aureus", "test": "Antibacterial activity against methicillin resistant Staphylococcus aureus MED 2028 osteomyelitis isolate assessed as bacterial count at 1 ug/ml after 8 hrs by time-kill assay"}, "[25]": {"system": "Staphylococcus aureus", "test": "Antibacterial activity against methicillin resistant Staphylococcus aureus MED 2028 osteomyelitis isolate assessed as bacterial count at 4 ug/ml after 8 hrs by time-kill assay"}, "[26]": {"system": "Streptococcus pneumoniae", "test": "Antibacterial activity against multidrug resistant Streptococcus pneumoniae MED 1090 assessed as bacterial count at 0.03 ug/ml after 24 hrs by time-kill assay"}, "[27]": {"system": "Streptococcus pneumoniae", "test": "Antibacterial activity against multidrug resistant Streptococcus pneumoniae MED 1090 assessed as bacterial count at 0.06 ug/ml after 8 hrs by time-kill assay"}, "[28]": {"system": "Staphylococcus epidermidis", "test": "Antibacterial activity against methicillin resistant Staphylococcus epidermidis ATCC 35984 assessed as bacterial count at 4 ug/ml after 2 hrs by time-kill assay"}, "[29]": {"system": "Enterococcus faecalis", "test": "Antibacterial activity against Enterococcus faecalis ATCC 51575 assessed as bacterial count at 2 ug/ml after 8 hrs by time-kill assay"}, "[30]": {"system": "Streptococcus pneumoniae", "test": "Antibacterial activity against multidrug resistant Streptococcus pneumoniae MED 1090 assessed as bacterial count at 0.03 ug/ml after 4 hrs by time-kill assay"}, "[31]": {"system": "Staphylococcus aureus", "test": "Antibacterial activity against methicillin resistant Staphylococcus aureus MED 1805 bloodstream isolate assessed as bacterial count at 16 ug/ml after 4 hrs by time-kill assay"}, "[32]": {"system": "Streptococcus pneumoniae", "test": "Antibacterial activity against multidrug resistant Streptococcus pneumoniae MED 1090 assessed as bacterial count at 0.03 ug/ml after 8 hrs by time-kill assay"}, "[33]": {"system": "Streptococcus pyogenes", "test": "Antibacterial activity against Streptococcus pyogenes MED 2040 assessed as bacterial count at 2 ug/ml after 2 hrs by time-kill assay"}, "[34]": {"system": "Streptococcus agalactiae", "test": "Antibacterial activity against Streptococcus agalactiae MED 2038 assessed as bacterial count at 2 ug/ml after 8 hrs by time-kill assay"}, "[35]": {"system": "Staphylococcus aureus", "test": "Antibacterial activity against methicillin resistant Staphylococcus aureus MED 2028 osteomyelitis isolate assessed as bacterial count at 16 ug/ml after 4 hrs by time-kill assay"}, "[36]": {"system": "Staphylococcus epidermidis", "test": "Antibacterial activity against methicillin resistant Staphylococcus epidermidis ATCC 35984 assessed as bacterial count at 2 ug/ml after 24 hrs by time-kill assay"}, "[37]": {"system": "Staphylococcus aureus", "test": "Antibacterial activity against methicillin resistant Staphylococcus aureus clinical isolate by broth microdilution method"}, "[38]": {"system": "Enterococcus faecalis", "test": "Antibacterial activity against Enterococcus faecalis ATCC 51575 assessed as bacterial count at 4 ug/ml after 24 hrs by time-kill assay"}, "[39]": {"system": "Streptococcus agalactiae", "test": "Antibacterial activity against Streptococcus agalactiae MED 2038 assessed as bacterial count at […] after 4 hrs by time-kill assay"}, "[40]": {"system": "Staphylococcus epidermidis", "test": "Antibacterial activity against methicillin resistant Staphylococcus epidermidis ATCC 35984 assessed as bacterial count at 2 ug/ml after 2 hrs by time-kill assay"}, "[41]": {"system": "Streptococcus agalactiae", "test": "Antibacterial activity against Streptococcus agalactiae MED 2038 assessed as bacterial count at 8 ug/ml after 8 hrs by time-kill assay"}, "[42]": {"system": "Streptococcus pyogenes", "test": "Antibacterial activity against Streptococcus pyogenes MED 2040 assessed as bacterial count at 8 ug/ml after 2 hrs by time-kill assay"}},
  "note": "Calls of active or inactive are those of the source. The rule behind the calls is not given here.",
  "data": [
    {"smiles": "CCCCCCCCCCNCCN[C@@]1(C)C[C@H](O[C@H]2[C@H](Oc3c4cc5cc3Oc3ccc(cc3Cl)[C@@H](O)[C@@H](NC(=O)[C@@H](CC(C)C)NC)C(=O)N[C@@H](CC(N)=O)C(=O)N[C@H]5C(=O)N[C@H]3C(=O)N[C@H](C(=O)N[C@H](C(=O)O)c5cc(O)c(CNCP(=O)(O)O)c(O)c5-c5cc3ccc5O)[C@H](O)c3ccc(c(Cl)c3)O4)O[C@H](CO)[C@@H](O)[C@@H]2O)O[C@@H](C)[C@H]1O", "note": "[TELAVANCIN]", "values": [
      {"measurement": "log10CFU/ml", "setting": "[1]", "value": 3.3},
      {"measurement": "log10CFU/ml", "setting": "[2]", "value": 1},
      {"measurement": "log10CFU/ml", "setting": "[3]", "value": 0.7},
      {"measurement": "log10CFU/ml", "setting": "[4]", "value": 0.7},
      {"measurement": "MIC", "setting": "[5]", "value": 0.015, "unit": "µg/mL"},
      {"measurement": "MIC50", "setting": "[5]", "value": "inactive"},
      {"measurement": "MIC90", "setting": "[5]", "value": "inactive"},
      {"measurement": "log10CFU/ml", "setting": "[6]", "value": 3.2},
      {"measurement": "log10CFU/ml", "setting": "[7]", "value": 0.2},
      {"measurement": "log10CFU/ml", "setting": "[8]", "value": 3},
      {"measurement": "log10CFU/ml", "setting": "[9]", "value": 3.4},
      {"measurement": "log10CFU/ml", "setting": "[10]", "value": 1.3},
      {"measurement": "log10CFU/ml", "setting": "[11]", "value": 2.2},
      {"measurement": "log10CFU/ml", "setting": "[12]", "value": 0.7},
      {"measurement": "MIC50", "setting": "[13]", "value": 8, "unit": "µg/mL"},
      {"measurement": "MIC90", "setting": "[13]", "value": 16, "unit": "µg/mL"},
      {"measurement": "log10CFU/ml", "setting": "[14]", "value": 2.1},
      {"measurement": "log10CFU/ml", "setting": "[15]", "value": 1},
      {"measurement": "log10CFU/ml", "setting": "[16]", "value": 2.5},
      {"measurement": "log10CFU/ml", "setting": "[17]", "value": 3.3},
      {"measurement": "log10CFU/ml", "setting": "[18]", "value": 0.5},
      {"measurement": "MIC50", "setting": "[19]", "value": 0.015, "unit": "µg/mL"},
      {"measurement": "MIC90", "setting": "[19]", "value": 0.03, "unit": "µg/mL"},
      {"measurement": "log10CFU/ml", "setting": "[20]", "value": 3.1},
      {"measurement": "log10CFU/ml", "setting": "[21]", "value": 0.6},
      {"measurement": "log10CFU/ml", "setting": "[22]", "value": 3.3},
      {"measurement": "log10CFU/ml", "setting": "[23]", "value": 3.1},
      {"measurement": "log10CFU/ml", "setting": "[24]", "value": 3.4},
      {"measurement": "log10CFU/ml", "setting": "[25]", "value": 3.4},
      {"measurement": "log10CFU/ml", "setting": "[26]", "value": 3.4},
      {"measurement": "log10CFU/ml", "setting": "[27]", "value": 3.4},
      {"measurement": "log10CFU/ml", "setting": "[28]", "value": 1},
      {"measurement": "log10CFU/ml", "setting": "[29]", "value": 0.6},
      {"measurement": "log10CFU/ml", "setting": "[30]", "value": 2.7},
      {"measurement": "log10CFU/ml", "setting": "[31]", "value": 1.6},
      {"measurement": "log10CFU/ml", "setting": "[32]", "value": 3.4},
      {"measurement": "log10CFU/ml", "setting": "[33]", "value": 1.8},
      {"measurement": "log10CFU/ml", "setting": "[34]", "value": 1},
      {"measurement": "log10CFU/ml", "setting": "[35]", "value": 0.8},
      {"measurement": "log10CFU/ml", "setting": "[36]", "value": 3.1},
      {"measurement": "Activity", "setting": "[37]", "value": 100, "unit": "%"},
      {"measurement": "MIC50", "setting": "[37]; Staphylococcus aureus", "value": 0.25, "unit": "µg/mL"},
      {"measurement": "MIC90", "setting": "[37]; Staphylococcus aureus", "value": 0.5, "unit": "µg/mL"},
      {"measurement": "log10CFU/ml", "setting": "[38]", "value": 1.2},
      {"measurement": "log10CFU/ml", "setting": "[39]", "value": 0.8},
      {"measurement": "log10CFU/ml", "setting": "[40]", "value": 0.2},
      {"measurement": "log10CFU/ml", "setting": "[41]", "value": 1.8},
      {"measurement": "log10CFU/ml", "setting": "[42]", "value": 0.6}
    ]}
  ]
}
